Assay results published in patent publication US8633209B2, “Hydrobromide salts of a pyrazolylaminoquinazoline” (Ambit Biosciences Corporation, priority 2010, dated 2014).
“Also recorded” adds a separate entry of the source. Like-named read-outs stand apart in the source and are kept apart here.

Legend:
Assay type in all cases: physicochemical
[1] = Heat and vapor stress (vacuum drying, RH jar) with XRPD analysis of the resulting solid form; details: for XRPD Results after vapor stress: ~94% RH vapor stress at RT for ~3 days; for Result of vacuum drying (Additional Information): temperature and time not stated in Table V
Description: X-ray powder diffraction analyses were performed using an Inel XRG-3000 diffractometer equipped with a CPS (Curved Position Sensitive) detector with a 2θ range of 120°. Real time data were collected using CuKα radiation at a resolution of 0.03° 2θ. The tube voltage and amperage were set to 40 kV and 30 mA, respectively. The monochromator slit was set at 5 mm by 160 μm. […] Samples were prepared into thin-walled glass capillaries for analysis. Each capillary was mounted onto a goniometer head that was motorized to permit spinning of the capillary during data acquisition. The samples were analyzed for 300 seconds. Instrument calibration was performed using a silicon reference standard.
Samples were placed in a RH jar of specified relative humidity at ambient temperature or elevated temperature for a given amount of time. Samples were placed in heating/vacuum oven at specified temperature for thermal stressing.

[2] = Solubility of the HBr salt of Form A in selected solvents, estimated by solvent addition under ambient conditions
Description: The solubility of the HBr salt of Form A in selected solvents was estimated by solvent addition under ambient conditions to provide preliminary information for the polymorph screen. […] This material is sparingly soluble in methanol, methanol/chloroform (1:1), and methanol/tetrahydrofuran (˜14-20 mg/mL).

[3] = Moisture sorption/desorption (VTI SGA-100 Vapor Sorption Analyzer, 5% to 95% RH); details: for Hygroscopicity (moisture sorption data are consistent with): 5% to 95% RH; for Weight gain upon increase in relative humidity: from ~5% to ~95% RH; for Weight loss upon decrease in relative humidity: from ~95% to ~5% RH
Description: Moisture soption/desorption data were collected on a VTI SGA-100 Vapor Sorption Analyzer. Sorption and desorption data were collected over a range of 5% to 95% relative humidity (RH) at 10% RH intervals under a nitrogen purge. Samples were not dried prior to analysis. Equilibrium criteria used for analysis were less than 0.0100% weight change in 5 min, with a maximum equilibration time of 3 hrs if the weight criterion was not met. Data were not corrected for the initial moisture content of the samples. NaCl and PVP were used as calibration standards.

In the case of `Cc1cc(Nc2nc(C(O)c3ccc(F)cc3)nc3ccccc23)n[nH]1` (centres unmarked) [Disordered Form A, (4-fluorophenyl)(4-(5-methyl-1H-pyrazol-3-ylamino)quinazolin-2-yl)methanol], the “XRPD Results after vapor stress” value [1] is reported as “Disordered A” and the “XRPD Results after vapor stress” value ([1]; listed as disordered Form A) is reported as “remained disordered”.
With `Cc1cc(Nc2nc(C(O)c3ccc(F)cc3)nc3ccccc23)n[nH]1` (centres unmarked) [Form A, (4-fluorophenyl)(4-(5-methyl-1H-pyrazol-3-ylamino)quinazolin-2-yl)methanol] the solubility ([2]; DMF/water (1:1), aqueous with cosolvent or surfactant or cyclodextrin, thermodynamic from solid, solvent DMF/water (1:1), read-out: Solubility) was 30000 µg/mL, the solubility ([2]; DMF/water (1:2), aqueous with cosolvent or surfactant or cyclodextrin, thermodynamic from solid, solvent DMF/water (1:2), read-out: Solubility) was 4000 µg/mL and the solubility ([2]; DMF/water (1:4), aqueous with cosolvent or surfactant or cyclodextrin, thermodynamic from solid, solvent DMF/water (1:4), read-out: Solubility) was less than 2000 µg/mL. For the same compound, the solubility ([2]; DMF/water (1:9), aqueous with cosolvent or surfactant or cyclodextrin, thermodynamic from solid, solvent DMF/water (1:9), read-out: Solubility) was less than 2000 µg/mL, the solubility ([2]; MeOH/THF (1:1), organic solvent or mixture, thermodynamic from solid, solvent MeOH/THF (1:1), read-out: Solubility) was 14000 to 20000 µg/mL and the solubility ([2]; MeOH/chloroform (1:1), organic solvent or mixture, thermodynamic from solid, solvent MeOH/chloroform (1:1), read-out: Solubility) was 14000 to 20000 µg/mL. The solubility ([2]; acetone, organic solvent or mixture, thermodynamic from solid, solvent Acetone, read-out: Solubility) was less than 2000 µg/mL, the solubility ([2]; acetonitrile, organic solvent or mixture, thermodynamic from solid, solvent ACN, read-out: Solubility) was less than 2000 µg/mL and the solubility ([2]; chloroform, organic solvent or mixture, thermodynamic from solid, solvent Chloroform, read-out: Solubility) was less than 2000 µg/mL. It also gave a solubility ([2]; dichloromethane, organic solvent or mixture, thermodynamic from solid, solvent DCM, read-out: Solubility) of less than 2000 µg/mL, a solubility ([2]; dimethylformamide, organic solvent or mixture, thermodynamic from solid, solvent DMF, read-out: Solubility) greater than 114000 µg/mL and a solubility ([2]; ethanol, organic solvent or mixture, thermodynamic from solid, solvent EtOH, read-out: Solubility) of 3000 to 7000 µg/mL. For the same compound, the solubility ([2]; ethyl acetate, organic solvent or mixture, thermodynamic from solid, solvent EtOAc, read-out: Solubility) was less than 2000 µg/mL, the solubility ([2]; hexafluoroisopropanol, organic solvent or mixture, thermodynamic from solid, solvent HFIPA (hexafluoroisopropanol), read-out: Solubility) was greater than 128000 µg/mL and the solubility ([2]; isopropyl alcohol, organic solvent or mixture, thermodynamic from solid, solvent IPA, read-out: Solubility) was less than 2000 µg/mL. For the same compound, the solubility ([2]; methanol, organic solvent or mixture, thermodynamic from solid, solvent MeOH, read-out: Solubility) was 14000 to 20000 µg/mL, the solubility ([2]; nitromethane, organic solvent or mixture, thermodynamic from solid, solvent Nitromethane, read-out: Solubility) was less than 2000 µg/mL and the “solubility” value ([2]; solvent ACN) was less than 2000 µg/mL. The “solubility” value ([2]; solvent Acetone) was less than 2000 µg/mL, the “solubility” value ([2]; solvent Chloroform) was less than 2000 µg/mL and the “solubility” value ([2]; solvent DCM) was less than 2000 µg/mL. The “solubility” value ([2]; solvent DMF) was greater than 114000 µg/mL, the “solubility” value ([2]; solvent DMF/water (1:4)) was less than 2000 µg/mL and the “solubility” value ([2]; solvent DMF/water (1:9)) was less than 2000 µg/mL. For the same compound, the “solubility” value ([2]; solvent EtOAc) was less than 2000 µg/mL, the “solubility” value ([2]; solvent EtOH) was 3000 µg/mL and the “solubility” value ([2]; solvent HFIPA (hexafluoroisopropanol)) was greater than 128000 µg/mL. For the same compound, the “solubility” value ([2]; solvent IPA) was less than 2000 µg/mL, the “solubility” value ([2]; solvent MeOH) was 18000 µg/mL and the “solubility” value ([2]; solvent MeOH/THF (1:1)) was 14000 µg/mL. For the same compound, the “solubility” value ([2]; solvent MeOH/chloroform (1:1)) was 16000 µg/mL, the “solubility” value ([2]; solvent Nitromethane) was less than 2000 µg/mL and the “solubility” value ([2]; solvent THF) was less than 2000 µg/mL. For the same compound, the “solubility” value ([2]; solvent Toluene) was less than 2000 µg/mL, the “solubility” value ([2]; solvent Water) was less than 2000 µg/mL and the solubility ([2]; t-butanol/water (3:1), organic solvent or mixture, thermodynamic from solid, solvent t-Butanol/water (3:1), read-out: Solubility) was 6000 µg/mL. For the same compound, the solubility ([2]; tetrahydrofuran, organic solvent or mixture, thermodynamic from solid, solvent THF, read-out: Solubility) was less than 2000 µg/mL, the solubility ([2]; toluene, organic solvent or mixture, thermodynamic from solid, solvent Toluene, read-out: Solubility) was less than 2000 µg/mL and the solubility ([2]; water, thermodynamic from solid, solvent Water, read-out: Solubility) was less than 2000 µg/mL. For the same compound, the “Hygroscopicity (moisture sorption data are consistent with)” value [3] was “limited hygroscopic material”, the “Weight loss upon equilibration at ~5% RH” value [3] was roughly 0.3 wt % and the “Weight gain upon increase in relative humidity” value [3] was 1.0 wt %. For the same compound, the “Weight loss upon decrease in relative humidity” value [3] was roughly 1.0 wt %.
In the case of `Cc1cc(Nc2nc(C(O)c3ccc(F)cc3)nc3ccccc23)n[nH]1` (centres unmarked) [Form B, (4-fluorophenyl)(4-(5-methyl-1H-pyrazol-3-ylamino)quinazolin-2-yl)methanol], the “Result of vacuum drying (Additional Information)” value (shortened to “Result of vacuum drying”) [1] is reported as “primarily consistent with Form A” and the “XRPD Results after vacuum drying” value ([1]; vacuum at ~60° C. for ~1 day) is reported as “mixture of Form A with small amount of Form B”.
For `Cc1cc(Nc2nc(C(O)c3ccc(F)cc3)nc3ccccc23)n[nH]1` (centres unmarked) [Form C, (4-fluorophenyl)(4-(5-methyl-1H-pyrazol-3-ylamino)quinazolin-2-yl)methanol], the “Result of vacuum drying” value ([1]; listed as C) was “Forms A and C” and the “XRPD Results after vacuum drying” value ([1]; vacuum at ~80° C. for ~1 day) was “mixture of Forms A and C”.
For `Cc1cc(Nc2nc(C(O)c3ccc(F)cc3)nc3ccccc23)n[nH]1` (centres unmarked) [Form D, (4-fluorophenyl)(4-(5-methyl-1H-pyrazol-3-ylamino)quinazolin-2-yl)methanol], the “Result of vacuum drying” value ([1]; listed as D) was “Form A” and the “XRPD Results after vacuum drying” value ([1]; vacuum at ~40° C. for ~3 days) was “consistent with Form A”.
With `Cc1cc(Nc2nc(C(O)c3ccc(F)cc3)nc3ccccc23)n[nH]1` (centres unmarked) [Form E, (4-fluorophenyl)(4-(5-methyl-1H-pyrazol-3-ylamino)quinazolin-2-yl)methanol] the “Result of vacuum drying” value [1] was “remained the same after vacuum”, the “XRPD Results after vacuum drying” value ([1]; vacuum at ~60° C. for ~2 days) was “No changes were observed in the XRPD pattern; also recorded: physically stable; also recorded: Form E” and the “Hygroscopicity (moisture sorption data are consistent with)” value [3] was “limited hygroscopic material”. For the same compound, the “Weight loss upon equilibration at ~5% RH” value [3] was roughly 0.2 wt %, the “Weight gain upon increase in relative humidity” value [3] was 0.6 wt % and the “Weight loss upon decrease in relative humidity” value [3] was roughly 0.6 wt %.
In the case of `Cc1cc(Nc2nc(C(O)c3ccc(F)cc3)nc3ccccc23)n[nH]1` (centres unmarked) [Forms A + B, (4-fluorophenyl)(4-(5-methyl-1H-pyrazol-3-ylamino)quinazolin-2-yl)methanol], the “XRPD Results after vacuum drying” value ([1]; vacuum at ~60° C. for ~1 day) is reported as “Form A +” and the “XRPD Results after vacuum drying” value ([1]; vacuum at ~60° C. for ~2 days, listed as Forms A and B) is reported as “primarily consistent with Form A with a minor amount of Form B”.
